Converted amounts (≈) assume the structure as drawn. The source made the active and inactive calls. The calls are words filed in the database; no cut-off is given here.
Tests used:
[1] = tested on: Staphylococcus aureus; test: Antibacterial activity against Staphylococcus aureus ATCC 29213 assessed as inhibition of visible growth incubated for 18 hrs by CLSI protocol based microbroth dilution method; assay type: functional
[2] = tested on: Pseudomonas aeruginosa; test: Synergistic antibacterial activity against multidrug resistant Pseudomonas aeruginosa PA259 in presence of ciprofloxacin by Checkerboard assay; assay type: functional, organism-based
[3] = tested on: Pseudomonas aeruginosa; test: Synergistic antibacterial activity against wild type Pseudomonas aeruginosa PAO1 in presence of levofloxacin by Checkerboard assay; assay type: functional, organism-based
[4] = tested on: Escherichia coli; test: Additive antibacterial activity against Escherichia coli 94474 in presence of ciprofloxacin by Checkerboard assay; assay type: functional, organism-based
[5] = tested on: Pseudomonas aeruginosa; test: Synergistic antibacterial activity against wild type Pseudomonas aeruginosa PAO1 in presence of moxifloxacin by Checkerboard assay; assay type: functional, organism-based
[6] = tested on: Pseudomonas aeruginosa; test: Potentiation of ceftazidime-induced antibacterial activity against wild type Pseudomonas aeruginosa PAO1 measured after 18 hrs by CLSI protocol based microbroth dilution method; assay type: functional, organism-based
[7] = tested on: Escherichia coli; test: Synergistic antibacterial activity against Escherichia coli ATCC 25922 in presence of levofloxacin by Checkerboard assay; assay type: functional, organism-based
[8] = tested on: Pseudomonas aeruginosa; test: Synergistic antibacterial activity against multidrug resistant Pseudomonas aeruginosa PA100036 in presence of ciprofloxacin by Checkerboard assay; assay type: functional, organism-based
[9] = tested on: Pseudomonas aeruginosa; test: Additive antibacterial activity against MexAB-OprM, MexCD-OprJ, MexEF-OprN, MexJK and MexXY efflux pumps deficient Pseudomonas aeruginosa PAO750 in presence of moxifloxacin by Checkerboard assay; assay type: functional, organism-based
[10] = tested on: Pseudomonas aeruginosa; test: Additive antibacterial activity against MexAB-OprM efflux pump deficient Pseudomonas aeruginosa PAO200 in presence of moxifloxacin by Checkerboard assay; assay type: functional, organism-based
[11] = tested on: Pseudomonas aeruginosa; test: Synergistic antibacterial activity against multidrug resistant Pseudomonas aeruginosa PA262 in presence of levofloxacin by Checkerboard assay; assay type: functional, organism-based
[12] = tested on: Acinetobacter baumannii; test: Synergistic antibacterial activity against multidrug resistant Acinetobacter baumannii AB027 assessed as fractional inhibitory concentration index in presence of moxifloxacin by Checkerboard assay; assay type: functional
[13] = tested on: Escherichia coli; test: Synergistic antibacterial activity against Escherichia coli 107115 in presence of levofloxacin by Checkerboard assay; assay type: functional, organism-based
[14] = tested on: Escherichia coli; test: Synergistic antibacterial activity against Escherichia coli 94474 in presence of levofloxacin by Checkerboard assay; assay type: functional, organism-based
[15] = tested on: Pseudomonas aeruginosa; test: Potentiation of minocycline-induced antibacterial activity against wild type Pseudomonas aeruginosa PAO1 measured after 18 hrs by CLSI protocol based microbroth dilution method; assay type: functional, organism-based
[16] = tested on: Pseudomonas aeruginosa; test: Potentiation of fosfomycin-induced antibacterial activity against wild type Pseudomonas aeruginosa PAO1 measured after 18 hrs by CLSI protocol based microbroth dilution method; assay type: functional, organism-based
[17] = tested on: Pseudomonas aeruginosa; test: Additive antibacterial activity against MexAB-OprM efflux pump deficient Pseudomonas aeruginosa PAO200 in presence of ciprofloxacin by Checkerboard assay; assay type: functional, organism-based
[18] = tested on: Escherichia coli; test: Antibacterial activity against Escherichia coli ATCC 25922 assessed as inhibition of visible growth incubated for 18 hrs by CLSI protocol based microbroth dilution method; assay type: functional
[19] = tested on: Pseudomonas aeruginosa; test: Potentiation of novobiocin-induced antibacterial activity against wild type Pseudomonas aeruginosa PAO1 measured after 18 hrs by CLSI protocol based microbroth dilution method; assay type: functional, organism-based
[20] = tested on: Escherichia coli; test: Additive antibacterial activity against Escherichia coli 107115 in presence of ciprofloxacin by Checkerboard assay; assay type: functional, organism-based
[21] = tested on: Pseudomonas aeruginosa; test: Synergistic antibacterial activity against multidrug resistant Pseudomonas aeruginosa PA260 in presence of levofloxacin by Checkerboard assay; assay type: functional, organism-based
[22] = tested on: Pseudomonas aeruginosa; test: Potentiation of aztreonam-induced antibacterial activity against wild type Pseudomonas aeruginosa PAO1 measured after 18 hrs by CLSI protocol based microbroth dilution method; assay type: functional, organism-based
[23] = tested on: Escherichia coli; test: Synergistic antibacterial activity against Escherichia coli 107115 in presence of moxifloxacin by Checkerboard assay; assay type: functional, organism-based
[24] = tested on: Escherichia coli; test: Additive antibacterial activity against Escherichia coli ATCC 25922 in presence of ciprofloxacin by Checkerboard assay; assay type: functional, organism-based
[25] = tested on: Klebsiella pneumoniae; test: Antibacterial activity against Klebsiella pneumoniae 116381 assessed as inhibition of visible growth incubated for 18 hrs by CLSI protocol based microbroth dilution method; assay type: functional
[26] = tested on: Pseudomonas aeruginosa; test: Synergistic antibacterial activity against multidrug resistant Pseudomonas aeruginosa PA262 in presence of ciprofloxacin by Checkerboard assay; assay type: functional, organism-based
[27] = tested on: Acinetobacter baumannii; test: Synergistic antibacterial activity against Acinetobacter baumannii ATCC 17978 in presence of ciprofloxacin by Checkerboard assay; assay type: functional, organism-based
[28] = tested on: Staphylococcus aureus; test: Antibacterial activity against methicillin-resistant Staphylococcus aureus ATCC 33592 assessed as inhibition of visible growth incubated for 18 hrs by CLSI protocol based microbroth dilution method; assay type: functional
[29] = tested on: Enterobacter cloacae; test: Antibacterial activity against Enterobacter cloacae 117029 assessed as inhibition of visible growth incubated for 18 hrs by CLSI protocol based microbroth dilution method; assay type: functional
[30] = tested on: Pseudomonas aeruginosa; test: Synergistic antibacterial activity against multidrug resistant Pseudomonas aeruginosa PA259 in presence of moxifloxacin by Checkerboard assay; assay type: functional, organism-based
[31] = tested on: Pseudomonas aeruginosa; test: Potentiation of levofloxacin-induced antibacterial activity against wild type Pseudomonas aeruginosa PAO1 assessed as […] measured after 18 hrs by CLSI protocol based microbroth dilution method relative to levofloxacin MIC; assay type: functional
[32] = tested on: Klebsiella pneumoniae; test: Synergistic antibacterial activity against Klebsiella pneumoniae 116381 in presence of levofloxacin by Checkerboard assay; assay type: functional, organism-based
[33] = tested on: Acinetobacter baumannii; test: Synergistic antibacterial activity against Acinetobacter baumannii ATCC 17978 in presence of levofloxacin by Checkerboard assay; assay type: functional, organism-based
[34] = tested on: Pseudomonas aeruginosa; test: Synergistic antibacterial activity against wild type Pseudomonas aeruginosa PAO1 assessed as fractional inhibitory concentration index in presence of moxifloxacin by Checkerboard assay; assay type: functional
[35] = tested on: Pseudomonas aeruginosa; test: Synergistic antibacterial activity against multidrug resistant Pseudomonas aeruginosa PA101885 in presence of ciprofloxacin by Checkerboard assay; assay type: functional, organism-based
[36] = tested on: Pseudomonas aeruginosa; test: Potentiation of trimethoprim-induced antibacterial activity against wild type Pseudomonas aeruginosa PAO1 measured after 18 hrs by CLSI protocol based microbroth dilution method; assay type: functional, organism-based
[37] = tested on: Pseudomonas aeruginosa; test: Synergistic antibacterial activity against multidrug resistant Pseudomonas aeruginosa PA100036 in presence of levofloxacin by Checkerboard assay; assay type: functional, organism-based
[38] = tested on: Enterococcus faecalis; test: Antibacterial activity against Enterococcus faecalis ATCC 29212 assessed as inhibition of visible growth incubated for 18 hrs by CLSI protocol based microbroth dilution method; assay type: functional
[39] = tested on: Pseudomonas aeruginosa; test: Synergistic antibacterial activity against multidrug resistant Pseudomonas aeruginosa PA101885 in presence of levofloxacin by Checkerboard assay; assay type: functional, organism-based
[40] = tested on: Pseudomonas aeruginosa; test: Synergistic antibacterial activity against wild type Pseudomonas aeruginosa PAO1 assessed as fractional inhibitory concentration index in presence of ciprofloxacin by Checkerboard assay; assay type: functional

## C[C@H]1COc2c(N3CCN(C)CC3)c(F)cc3c(=O)c(C(=O)NCCCCCCCCCCCC(=O)N[C@@H](CCN)C(=O)N[C@@H](CCN)C(N)=O)cn1c23
[1]
  MIC: 128 µg/mL (≈ 169 µM)
[2]
  Activity: Active
[3]
  Activity: Active
[4]
  Activity: Active
[5]
  Activity: Active
[6]
  Activity: Active
[7]
  Activity: Active
[8]
  Activity: Active
[9]
  Activity: Active
[10]
  Activity: Active
[11]
  Activity: Active
[12]
  fractional inhibitory concentration index (FICI): 0.37
[13]
  Activity: Active
[14]
  Activity: Active
[15]
  Activity: Active
[16]
  Activity: Active
[17]
  Activity: Active
[18]
  MIC: 64 µg/mL (≈ 84.4 µM)
[19]
  Activity: Active
[20]
  Activity: Active
[21]
  Activity: Active
[22]
  Activity: inactive
[23]
  Activity: Active
[24]
  Activity: Active
[25]
  MIC: > 128 µg/mL
[26]
  Activity: Active
[27]
  Activity: inactive
[28]
  MIC: > 128 µg/mL
[29]
  MIC: 128 µg/mL (≈ 169 µM)
[30]
  Activity: Active
[31]
  Ratio: 4
[32]
  Activity: Active
[33]
  Activity: inactive
[34]
  fractional inhibitory concentration index (FICI): 0.5
[35]
  Activity: Active
[36]
  Activity: Active
[37]
  Activity: Active
[38]
  MIC: > 128 µg/mL
[39]
  Activity: Active
[40]
  fractional inhibitory concentration index (FICI): 0.313

Source: ChEMBL document CHEMBL4680060, “Polybasic peptide-levofloxacin conjugates potentiate fluoroquinolones and other classes of antibiotics against multidrug-resistant Gram-negative bacteria” (Medchemcomm, 2019)
